Test results from patent publication US9663523B2, “BET protein-inhibiting 5-aryltriazoleazepines” (BAYER PHARMA AKTIENGESELLSCHAFT, priority 2012, dated 2017).

Assays:
[1] = target: BRD4(1) (amino acids 44-168) (Homo sapiens (Human), UniProt O60885); assay: BRD4 binding strength, TR-FRET (HTRF) assay of BRD4(1) / acetylated histone H4 peptide interaction; settings: inhibition of BRD4(1)/Ac-H4 peptide interaction
Text: To assess the BRD4 binding strength of the compounds according to the invention, the ability thereof to inhibit the interaction between BRD4 and acetylated histone H4 in a dose-dependent manner was quantified. For this purpose, a time-resolved fluorescence resonance energy transfer (TR-FRET) assay was used, which measures the binding between N-terminally His6-tagged BRD4(1) (amino acids 44-168) and a synthetic acetylated histone H4 (Ac-H4) peptide with sequence […]-biotin. The recombinant BRD4 protein produced in-house according to Filippakopoulos et al., Cell, 2012, 149:214-231 was expressed in E. coli and purified by means of (Ni-NTA) affinity and (Sephadex G-75) size exclusion chromatography. The Ac-H4 peptide can be purchased, for example, from Biosyntan (Berlin, Germany). […] For this purpose, 100-fold concentrated solutions in DMSO were prepared by serial dilutions (1:3.4) of a 2 mM stock solution into a clear, 384-well microtitre plate (Greiner Bio-One, Frickenhausen, Germany). From this, 50 nl were transferred into a black test plate (Greiner Bio-One, Frickenhausen, Germany). […] This was followed by a 10-minute incubation step at 22° C. for the pre-equilibration of putative complexes between BRD4 and the substances. Subsequently, 3 μl of a solution of 1.67 times the concentration (in assay buffer) consisting of Ac-H4 peptide (83.5 nM) and TR-FRET detection reagents [16.7 nM anti-6His-XL665 and 3.34 nM streptavidin cryptate (both from Cisbio Bioassays, Codolet, France), and 668 mM potassium fluoride (KF)] were added. The mixture was then incubated in the dark at 22° C. for one hour and then at 4° C. overnight. The formation of BRD4/Ac-H4 complexes was determined by the measurement of the resonance energy transfer from the streptavidin-Eu cryptate to the anti-6His-XL665 antibody present in the reaction. […] The ratio of the emissions at 665 nm and at 622 nm was taken as an indicator of the amount of BRD4/Ac-H4 complexes formed.

LAPC-4 cells = assay: Cell proliferation (alamarBlue), LAPC-4; assay type: cell-based; settings: Homo sapiens, LAPC4; prostate carcinoma (androgen receptor-positive) cell line, 168 hours incubation
Experimental: (§1) The ability of the compounds according to the invention to inhibit the proliferation of various cell lines was determined.
(§2) Cell viability was determined by means of the alamarBlue® reagent (Invitrogen). The cells were sown at different densities (MOLM-13, LAPC-4, MOLP-8 and MDA-MB-231: 4000 cells/well; B16F10: 400 cells/well) in 100 μl of growth medium on 96-well microtitre plates. After overnight incubation at 37° C., the fluorescence values (CI values) were determined. The plates were then treated with various substance dilutions and incubated at 37° C. for 96 hours (MOLM-13, MDA-MB-231 and B16F10 cells), 120 hours (MOLP-8 cells) or 168 hours (LAPC-4 cells). Subsequently, the fluorescence values were determined (CO values).
(§3) The compounds according to the invention were tested in the cell lines in Table 2, which represent the indications specified by way of example:
(§4) The indications corresponding to the different cell lines can be found in Table 2.

MOLM-13 cells = assay: Cell proliferation (alamarBlue), MOLM-13; assay type: cell-based; settings: Homo sapiens, acute myeloid leukaemia cell line, 96 hours incubation
Experimental: as §1
as §2, with “values). For the data analysis, the CI values were subtracted from the CO values and the results were compared between cells which had been treated with various dilutions of the substance or only with buffer solution.” for “values).”
as §3, §4

B16F10 cells = assay: Cell proliferation (alamarBlue), B16F10; assay type: cell-based; settings: Mus musculus, B16-F10; melanoma cell line, 96 hours incubation
Experimental: as §1
as §2, with “values). For the data analysis, the CI values were subtracted from the CO values and the results were compared between cells which had been treated with various dilutions of the substance or only with buffer solution.” for “values).”
as §3, §4

MDA-MB-231 cells = assay: Cell proliferation (alamarBlue), MDA-MB-231; assay type: cell-based; settings: Homo sapiens, mammary carcinoma cell line, 96 hours incubation
Experimental: as §1
as §2, with “values). For the data analysis, the CI values were subtracted from the CO values and the results were compared between cells which had been treated with various dilutions of the substance or only with buffer solution.” for “values).”
as §3, §4

MOLP-8 cells = assay: Cell proliferation (alamarBlue), MOLP-8; assay type: cell-based; settings: Homo sapiens, multiple myeloma cell line, 120 hours incubation
Experimental: as §1, §2, §3, §4

Compound	IC50 [1] [µM]	IC50 (LAPC-4 cells) [µM]	IC50 (MOLM-13 cells) [µM]	IC50 (B16F10 cells) [µM]	IC50 (MDA-MB-231 cells) [µM]	IC50 (MOLP-8 cells) [µM]
Cc1nnc2n1-c1ccccc1C(c1ccc(Cl)cc1)=C[C@H]2CC(=O)N1CC2CCC(C1)O2 (single isomer, unassigned; (-)) [Example 33]	0.45	0.15	0.33	0.4	1.29	–
CCNC(=O)CC1C=C(c2ccc(Cl)cc2)c2ccccc2-n2c(C)nnc21 (stereo in doubt) [Example 13, (−)-2-[(4R)-6-(4-chlorophenyl)-1-methyl-4H-[1,2,4]triazolo[4,3-a][1]benzazepin-4-yl]-N-ethylacetamide]	0.03	0.06	0.31	0.15	0.32	–
Cc1nnc2n1-c1ccccc1C(c1ccc(Cl)cc1)=CC2CC(=O)N1CCOCC1 (stereo in doubt) [Example 15, (−)-2-[(4R)-6-(4-chlorophenyl)-1-methyl-4H-[1,2,4]triazolo[4,3-a][1]benzazepin-4-yl]-1-(morpholin-4-yl)ethanone]	0.04	0.06	0.23	0.13	0.35	–
Cc1nnc2n1-c1ccccc1C(c1ccc(Cl)cc1)=CC2CC(=O)N1CC(F)C1 (stereo in doubt) [Example 17, (−)-2-[(4R)-6-(4-chlorophenyl)-1-methyl-4H-[1,2,4]triazolo[4,3-a][1]benzazepin-4-yl]-1-(3-fluoroazetidin-1-yl)ethanone]	0.09	0.14	0.34	0.28	0.57	–
Cc1nnc2n1-c1ccccc1C(c1ccc(Cl)cc1)=CC2CC(=O)Nc1ccc2c(c1)CC(=O)N2 (stereo in doubt) [Example 21, (−)-2-[(4R)-6-(4-chlorophenyl)-1-methyl-4H-[1,2,4]triazolo[4,3-a][1]benzazepin-4-yl]-N-(2-oxo-2,3-dihydro-1H-indol-5-yl)acetamide]	0.08	0.08	0.17	0.19	0.48	–
Cc1nnc2n1-c1ccccc1C(c1ccc(Cl)cc1)=CC2Cc1nc(C(C)C)no1 (stereo in doubt) [Example 36, (−)-(4R)-6-(4-chlorophenyl)-1-methyl-4-{[3-(propan-2-yl)-1,2,4-oxadiazol-5-yl]methyl}-4H-[1,2,4]triazolo[4,3-a][1]benzazepine]	0.09	0.16	0.4	0.24	0.41	–
Cc1nnc(CC2C=C(c3ccc(Cl)cc3)c3ccccc3-n3c(C)nnc32)s1 (stereo in doubt) [Example 42, (+)-(4R)-6-(4-chlorophenyl)-1-methyl-4-[(5-methyl-1,3,4-thiadiazol-2-yl)methyl]-4H-[1,2,4]triazolo[4,3-a][1]benzazepine]	0.05	–	0.17	0.14	–	0.11
Cc1nnc2n1-c1ccc(OC(F)(F)F)cc1C(c1ccc(Cl)cc1)=CC2CC(=O)OC(C)(C)C (stereo in doubt) [Example 50, tert-butyl (−)-[(4R)-6-(4-chlorophenyl)-1-methyl-8-(trifluoromethoxy)-4H-[1,2,4]triazolo[4,3-a][1]benzazepin-4-yl]acetate]	0.79	–	0.88	1.17	–	1.05
Cc1nnc2n1-c1ccccc1C(c1ccc(Cl)cc1)=CC2CC(=O)OC(C)(C)C (centres unmarked) [Example 8, tert-butyl [6-(4-chlorophenyl)-1-methyl-4H-[1,2,4]triazolo[4,3-a][1]benzazepin-4-yl]acetate]	–	0.82	3.91	1	–	4.8
Cc1nnc2n1-c1ccccc1C(c1cccc(Cl)c1)=CC2CC(=O)N1CC2(COC2)C1 (centres unmarked) [Example 10, 2-[6-(3-chlorophenyl)-1-methyl-4H-[1,2,4]triazolo[4,3-a][1]benzazepin-4-yl]-1-(2-oxa-6-azaspiro[3.3]hept-6-yl)ethanone]	0.73	1.61	2.63	3.03	–	1.29
Cc1nnc2n1-c1ccccc1C(c1ccc(Cl)cc1)=CC2CC(=O)N1CC2(CCS2(=O)=O)C1 (centres unmarked) [Example 18, 2-[6-(4-chlorophenyl)-1-methyl-4H-[1,2,4]triazolo[4,3-a][1]benzazepin-4-yl]-1-(1,1-dioxido-1-thia-6-azaspiro[3.3]hept-6-yl)ethanone]	–	–	0.33	0.36	0.8	–
CCNC(=O)C[C@@H]1C=C(c2ccc(Cl)cc2)c2cc(OC(F)(F)F)ccc2-n2c(C)nnc21 [Example 52, 2-[(4R)-6-(4-chlorophenyl)-1-methyl-8-(trifluoromethoxy)-4H-[1,2,4]triazolo[4,3-a][1]benzazepin-4-yl]-N-ethylacetamide]	0.19	–	0.31	0.42	–	0.26
Cc1nnc2n1-c1ccc(OC(F)(F)F)cc1C(c1ccc(Cl)cc1)=C[C@H]2CC(=O)NCCN1CCOCC1 [Example 53, 2-[(4R)-6-(4-chlorophenyl)-1-methyl-8-(trifluoromethoxy)-4H-[1,2,4]triazolo[4,3-a][1]benzazepin-4-yl]-N-[2-(morpholin-4-yl)ethyl]acetamide]	0.08	–	0.15	0.22	–	0.11
Cc1nnc(CC2C=C(c3ccc(Cl)cc3)c3cc(OC(F)(F)F)ccc3-n3c(C)nnc32)o1 (centres unmarked) [Example 54, 6-(4-chlorophenyl)-1-methyl-4-[(5-methyl-1,3,4-oxadiazol-2-yl)methyl]-8-(trifluoromethoxy)-4H-[1,2,4]triazolo[4,3-a][1]benzazepine]	0.13	–	0.3	0.5	–	0.36
Cc1nnc(C[C@@H]2C=C(c3ccc(Cl)cc3)c3cc(OC(F)(F)F)ccc3-n3c(C)nnc32)o1 [Example 55, (4R)-6-(4-chlorophenyl)-1-methyl-4-[(5-methyl-1,3,4-oxadiazol-2-yl)methyl]-8-(trifluoromethoxy)-4H-[1,2,4]triazolo[4,3-a][1]benzazepine]	0.09	–	0.18	0.27	–	0.17
Cc1nnc2n1-c1ccc(OC(F)(F)F)cc1C(c1ccc(Cl)cc1)=C[C@H]2CC(=O)N1CCN2C(=O)CCC2C1 (stereo partly drawn) [Example 56, 2-{[(4R)-6-(4-chlorophenyl)-1-methyl-8-(trifluoromethoxy)-4H-[1,2,4]triazolo[4,3-a][1]benzazepin-4-yl]acetyl}hexahydropyrrolo[1,2-a]pyrazin-6(2H)-one]	0.18	–	0.15	0.22	–	0.12
Cc1nnc2n1-c1ccccc1C(c1ccc(Cl)cc1)=C[C@H]2Cc1nnc(COCc2ccccc2)o1 [Example 57, (4R)-4-({5-[(benzyloxy)methyl]-1,3,4-oxadiazol-2-yl}methyl)-6-(4-chlorophenyl)-1-methyl-4H-[1,2,4]triazolo[4,3-a][1]benzazepine]	0.27	–	0.41	0.57	–	0.42
